Experimental data published in US8524755B2 (priority 2009, dated 2013).

Experiments:
BLT1 (LTB4) (h) = molecular target: T1, BLT1 (LTB4) (h) (Homo sapiens, UniProt Q15722); assay: Binding BLT1 (LTB4) (h) (ag); conditions: read-out: % Inhibition of Control Specific Binding @ 10 μM
T1 construct: expressed in transfected cells; host or cells: CHO cells
Protocol: (§1) Radioligand binding assay methods utilized to measure the activity of compounds of the invention will be familiar to those skilled in the art. In each assay case, the assay components such as, for example, the cell-type, ligand, reference compound and the like, will be familiar to practitioners of such an assay.
(§2) Analysis and Expression of Results: Compounds of the invention were tested in the biochemical assays and percent inhibition of specific binding was determined. The specific ligand binding to the receptors is defined as the difference between the total binding and the nonspecific binding determined in the presence of an excess of unlabelled ligand. The results are expressed as a percent inhibition of control specific binding (100−((measured specific binding/control specific binding)×100)) obtained in the presence of test compounds.

[1] = molecular target: T2, N neuronal α-BGTX-insensitive (α4β2) (Rattus norvegicus, UniProt P09483+P12390); assay: Binding N neuronal α-BGTX-insensitive (α4β2) (ag); conditions: read-out: % Inhibition of Control Specific Binding @ 10 μM
T2 construct: rat cerebral cortex; from tissue; host or cells: rat cerebral cortex
T2 sequence (P09483 31-630): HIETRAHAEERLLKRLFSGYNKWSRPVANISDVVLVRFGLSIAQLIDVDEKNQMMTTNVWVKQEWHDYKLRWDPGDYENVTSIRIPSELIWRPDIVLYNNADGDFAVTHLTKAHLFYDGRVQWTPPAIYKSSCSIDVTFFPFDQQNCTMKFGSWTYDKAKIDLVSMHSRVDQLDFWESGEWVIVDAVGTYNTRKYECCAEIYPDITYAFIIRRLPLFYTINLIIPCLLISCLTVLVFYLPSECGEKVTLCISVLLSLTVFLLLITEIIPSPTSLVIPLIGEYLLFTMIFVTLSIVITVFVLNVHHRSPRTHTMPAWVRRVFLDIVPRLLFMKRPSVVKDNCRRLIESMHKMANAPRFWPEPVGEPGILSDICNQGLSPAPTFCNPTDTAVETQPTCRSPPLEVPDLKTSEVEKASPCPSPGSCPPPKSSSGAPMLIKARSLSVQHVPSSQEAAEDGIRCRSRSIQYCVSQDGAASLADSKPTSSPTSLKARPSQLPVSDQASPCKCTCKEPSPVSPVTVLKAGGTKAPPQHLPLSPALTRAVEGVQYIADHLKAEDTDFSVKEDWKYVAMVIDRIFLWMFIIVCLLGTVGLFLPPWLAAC
T2 sequence (P12390 25-500): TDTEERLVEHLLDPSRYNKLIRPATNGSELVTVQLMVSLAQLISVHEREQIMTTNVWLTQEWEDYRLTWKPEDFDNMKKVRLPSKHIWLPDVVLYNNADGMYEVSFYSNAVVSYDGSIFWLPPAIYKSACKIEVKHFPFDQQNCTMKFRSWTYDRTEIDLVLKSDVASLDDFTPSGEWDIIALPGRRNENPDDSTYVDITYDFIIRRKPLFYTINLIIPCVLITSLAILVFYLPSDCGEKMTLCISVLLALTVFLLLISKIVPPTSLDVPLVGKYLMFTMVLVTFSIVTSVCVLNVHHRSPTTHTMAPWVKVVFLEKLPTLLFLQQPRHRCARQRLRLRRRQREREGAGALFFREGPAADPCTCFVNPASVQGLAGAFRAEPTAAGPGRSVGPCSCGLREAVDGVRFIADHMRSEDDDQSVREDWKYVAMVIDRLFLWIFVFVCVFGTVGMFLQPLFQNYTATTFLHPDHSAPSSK
Protocol: as §1, §2

GABA (ns) = assay: Binding GABA (ns) (ag); design: species or system rat
Protocol: as §1, §2

guanylyl cyclase (basal) = molecular target: T3, guanylyl cyclase (basal) (Bos taurus, UniProt P16068+P19687); assay: Enzyme assay guanylyl cyclase (basal); type: biochemical, bovine
T3 construct: bovine lung; from tissue; host or cells: bovine lung
T3 sequence (P19687 1-691): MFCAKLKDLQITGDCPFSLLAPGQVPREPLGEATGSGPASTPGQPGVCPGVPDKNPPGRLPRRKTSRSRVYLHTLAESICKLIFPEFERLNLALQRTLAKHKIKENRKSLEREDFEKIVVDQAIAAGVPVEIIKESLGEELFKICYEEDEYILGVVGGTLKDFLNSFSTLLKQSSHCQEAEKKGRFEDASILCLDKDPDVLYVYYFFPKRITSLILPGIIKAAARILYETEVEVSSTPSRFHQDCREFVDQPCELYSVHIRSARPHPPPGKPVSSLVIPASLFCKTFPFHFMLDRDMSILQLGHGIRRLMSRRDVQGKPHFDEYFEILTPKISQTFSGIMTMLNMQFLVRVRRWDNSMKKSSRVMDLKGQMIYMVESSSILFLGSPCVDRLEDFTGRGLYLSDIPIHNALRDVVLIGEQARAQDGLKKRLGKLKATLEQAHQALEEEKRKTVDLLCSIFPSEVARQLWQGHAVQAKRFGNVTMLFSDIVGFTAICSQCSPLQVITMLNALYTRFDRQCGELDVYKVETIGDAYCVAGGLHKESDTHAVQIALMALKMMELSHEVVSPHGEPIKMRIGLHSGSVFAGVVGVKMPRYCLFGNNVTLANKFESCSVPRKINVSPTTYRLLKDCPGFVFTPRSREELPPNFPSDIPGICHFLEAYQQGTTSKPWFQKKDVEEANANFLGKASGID
T3 sequence (P16068 1-619): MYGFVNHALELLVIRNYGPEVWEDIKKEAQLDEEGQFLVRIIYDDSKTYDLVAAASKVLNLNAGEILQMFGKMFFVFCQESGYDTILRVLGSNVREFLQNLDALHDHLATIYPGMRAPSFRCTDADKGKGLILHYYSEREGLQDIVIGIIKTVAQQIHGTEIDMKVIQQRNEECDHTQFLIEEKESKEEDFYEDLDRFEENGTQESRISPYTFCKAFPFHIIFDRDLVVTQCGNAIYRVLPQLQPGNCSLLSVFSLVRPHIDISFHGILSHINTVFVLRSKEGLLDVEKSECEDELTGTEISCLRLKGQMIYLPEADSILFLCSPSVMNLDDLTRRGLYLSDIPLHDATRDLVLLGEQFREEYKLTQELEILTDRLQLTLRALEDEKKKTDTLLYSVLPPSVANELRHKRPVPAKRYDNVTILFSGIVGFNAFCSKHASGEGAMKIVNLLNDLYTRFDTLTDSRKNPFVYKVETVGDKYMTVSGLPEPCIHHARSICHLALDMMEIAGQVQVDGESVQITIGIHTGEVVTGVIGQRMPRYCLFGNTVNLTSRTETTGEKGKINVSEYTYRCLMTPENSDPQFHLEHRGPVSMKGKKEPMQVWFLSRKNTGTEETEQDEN
Text: (§3) The enzyme assays provided below will be familiar to those skilled in the art.
(§4) Analysis and Expression of Results: The results are expressed as a percent of control specific activity ((measured specific activity/control specific activity)×100) obtained in the presence of the test compounds.

P2Y = assay: Binding P2Y (ag); design: species or system rat
Protocol: as §1, §2

PDE3A (h) = molecular target: T4, PDE3A (h) (Homo sapiens, UniProt Q14432); assay: Enzyme assay PDE3A (h); type: biochemical; conditions: read-out: % Inhibition of Control Values @ 10 μM
T4 construct: host or cells: Sf9 cells
T4 sequence (Q14432 whole entry): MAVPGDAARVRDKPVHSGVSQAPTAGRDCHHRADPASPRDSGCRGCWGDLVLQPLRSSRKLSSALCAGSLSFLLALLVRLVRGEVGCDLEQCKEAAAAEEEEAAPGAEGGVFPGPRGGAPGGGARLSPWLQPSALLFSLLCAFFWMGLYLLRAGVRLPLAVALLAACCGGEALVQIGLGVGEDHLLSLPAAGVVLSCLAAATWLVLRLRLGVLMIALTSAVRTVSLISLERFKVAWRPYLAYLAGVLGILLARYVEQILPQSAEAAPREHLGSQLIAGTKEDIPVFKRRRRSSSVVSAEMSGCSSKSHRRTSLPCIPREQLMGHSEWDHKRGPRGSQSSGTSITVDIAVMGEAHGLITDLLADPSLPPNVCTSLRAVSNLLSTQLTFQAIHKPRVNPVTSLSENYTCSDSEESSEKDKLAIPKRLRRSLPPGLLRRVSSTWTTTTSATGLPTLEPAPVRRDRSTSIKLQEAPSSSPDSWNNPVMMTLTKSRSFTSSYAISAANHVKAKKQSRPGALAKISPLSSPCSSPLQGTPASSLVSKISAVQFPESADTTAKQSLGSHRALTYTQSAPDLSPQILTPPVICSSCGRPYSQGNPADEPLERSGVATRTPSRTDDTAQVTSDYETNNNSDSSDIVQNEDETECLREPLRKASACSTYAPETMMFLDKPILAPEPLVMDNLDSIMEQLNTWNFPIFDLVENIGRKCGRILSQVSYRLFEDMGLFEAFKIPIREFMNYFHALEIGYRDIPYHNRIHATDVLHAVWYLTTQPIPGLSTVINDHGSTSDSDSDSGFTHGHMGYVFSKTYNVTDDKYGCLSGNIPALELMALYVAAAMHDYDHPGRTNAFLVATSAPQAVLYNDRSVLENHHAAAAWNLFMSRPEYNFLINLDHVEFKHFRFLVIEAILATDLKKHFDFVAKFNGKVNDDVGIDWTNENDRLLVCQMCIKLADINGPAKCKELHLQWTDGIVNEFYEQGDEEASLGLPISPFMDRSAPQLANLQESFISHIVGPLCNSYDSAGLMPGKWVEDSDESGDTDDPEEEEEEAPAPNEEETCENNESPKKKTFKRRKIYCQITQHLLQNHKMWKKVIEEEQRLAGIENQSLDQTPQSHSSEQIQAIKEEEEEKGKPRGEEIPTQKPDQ
Text: as §3, §4

PNMT = molecular target: T5, PNMT (Bos taurus, UniProt P10938); assay: Enzyme assay PNMT; type: biochemical, bovine; conditions: read-out: % Inhibition of Control Values @ 10 μM
T5 construct: bovine adrenal medulla; from tissue; host or cells: bovine adrenal medulla
T5 sequence (P10938 1-283): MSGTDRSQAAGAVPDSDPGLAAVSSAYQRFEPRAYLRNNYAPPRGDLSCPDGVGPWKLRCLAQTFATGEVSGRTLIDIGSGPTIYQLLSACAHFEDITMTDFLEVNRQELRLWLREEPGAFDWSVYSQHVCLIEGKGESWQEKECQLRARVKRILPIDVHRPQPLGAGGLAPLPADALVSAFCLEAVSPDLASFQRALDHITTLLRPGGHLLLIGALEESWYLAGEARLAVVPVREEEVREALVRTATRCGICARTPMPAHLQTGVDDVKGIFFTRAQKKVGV
Text: as §3, §4

dopamine transporter (h) = molecular target: T6, dopamine transporter (h) (Homo sapiens, UniProt Q01959); assay: Binding dopamine transporter (h) (aa); conditions: read-out: % Inhibition of Control Specific Binding @ 10 μM
T6 construct: expressed in transfected cells; host or cells: CHO cells
T6 sequence (Q01959 whole entry): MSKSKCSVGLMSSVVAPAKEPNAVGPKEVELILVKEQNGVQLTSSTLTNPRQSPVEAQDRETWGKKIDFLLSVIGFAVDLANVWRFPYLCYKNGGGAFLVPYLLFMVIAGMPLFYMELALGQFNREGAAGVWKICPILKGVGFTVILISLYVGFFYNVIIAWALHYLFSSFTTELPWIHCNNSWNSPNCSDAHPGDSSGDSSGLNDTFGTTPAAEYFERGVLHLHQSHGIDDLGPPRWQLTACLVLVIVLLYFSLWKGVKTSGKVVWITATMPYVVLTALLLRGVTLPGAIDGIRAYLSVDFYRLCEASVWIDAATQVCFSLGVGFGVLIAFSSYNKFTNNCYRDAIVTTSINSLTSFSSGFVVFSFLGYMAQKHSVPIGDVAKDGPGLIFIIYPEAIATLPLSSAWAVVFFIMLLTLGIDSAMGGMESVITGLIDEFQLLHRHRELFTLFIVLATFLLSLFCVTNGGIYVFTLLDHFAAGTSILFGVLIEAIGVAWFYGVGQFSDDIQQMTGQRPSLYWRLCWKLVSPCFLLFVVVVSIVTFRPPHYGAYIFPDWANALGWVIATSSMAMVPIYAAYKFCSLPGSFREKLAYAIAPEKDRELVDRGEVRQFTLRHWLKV
Protocol: as §1, §2

Histamine H1 (h) = molecular target: T7, Histamine H1 (h) (Homo sapiens, UniProt P35367); assay: Binding H1 (h) (aa); conditions: read-out: % Inhibition of Control Specific Binding @ 10 μM
T7 construct: expressed in transfected cells; host or cells: HEK-293 cells
T7 sequence (P35367 whole entry): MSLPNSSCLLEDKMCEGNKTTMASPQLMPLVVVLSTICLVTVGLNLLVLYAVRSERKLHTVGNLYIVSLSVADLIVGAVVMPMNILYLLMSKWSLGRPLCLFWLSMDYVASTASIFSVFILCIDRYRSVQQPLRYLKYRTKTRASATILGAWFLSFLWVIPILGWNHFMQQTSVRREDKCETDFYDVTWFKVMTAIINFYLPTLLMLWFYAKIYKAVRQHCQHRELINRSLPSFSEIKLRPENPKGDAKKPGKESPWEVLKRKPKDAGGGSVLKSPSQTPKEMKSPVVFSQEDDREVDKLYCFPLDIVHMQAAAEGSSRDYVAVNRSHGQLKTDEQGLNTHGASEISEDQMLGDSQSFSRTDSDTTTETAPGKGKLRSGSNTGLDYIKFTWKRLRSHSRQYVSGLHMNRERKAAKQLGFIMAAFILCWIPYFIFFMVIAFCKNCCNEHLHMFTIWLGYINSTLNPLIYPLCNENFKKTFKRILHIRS
Protocol: as §1, §2

T1 sequence (Q15722 whole entry): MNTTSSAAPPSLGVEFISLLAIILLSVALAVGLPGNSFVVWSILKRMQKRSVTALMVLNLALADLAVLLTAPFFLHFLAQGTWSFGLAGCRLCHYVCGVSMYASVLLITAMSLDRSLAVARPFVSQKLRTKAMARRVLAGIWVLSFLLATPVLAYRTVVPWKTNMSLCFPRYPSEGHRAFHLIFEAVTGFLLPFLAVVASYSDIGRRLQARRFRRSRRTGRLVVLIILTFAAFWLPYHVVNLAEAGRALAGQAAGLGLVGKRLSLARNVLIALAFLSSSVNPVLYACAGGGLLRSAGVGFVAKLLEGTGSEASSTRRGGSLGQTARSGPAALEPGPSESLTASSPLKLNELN

| SMILES | inhibition at 10 µM (BLT1 (LTB4) (h)) [%] | inhibition at 10 µM [1] [%] | % Inhibition of Control Specific Binding @ 10 μM (GABA (ns)) [%] | % Stimulation Relative to Control @ 10 μM (guanylyl cyclase (basal)) [%] | % Inhibition of Control Specific Binding @ 10 μM (P2Y) [%] | inhibition at 10 µM (PDE3A (h)) [%] | inhibition at 10 µM (PNMT) [%] | inhibition at 10 µM (dopamine transporter (h)) [%] | inhibition at 10 µM (Histamine H1 (h)) [%] |
| --- | --- | --- | --- | --- | --- | --- | --- | --- | --- |
| CNC(=O)c1ccc(N2C(=O)N(c3ccc(C#N)c(C(F)(F)F)c3)C(=O)C2(C)C)cc1F [(MIV), 4-(3-(4-cyano-3-(trifluoromethyl)phenyl)-5,5-dimethyl-2,4-dioxoimidazolidin-1-yl)-2-fluoro-N-methylbenzamide] | -6 | -3 | 5 | 2 | 0 | 2 | 14 | 7 | -11 |
| CC1(C)C(=O)N(c2ccc(C#N)c(C(F)(F)F)c2)C(=S)N1c1ccc(C(=O)O)c(F)c1 [(MI), 4-(3-(4-cyano-3-(trifluoromethyl)phenyl)-5,5-dimethyl-4-oxo-2-thioxoimidazolidin-1-yl)-2-fluorobenzoic acid] | -15 | 0 | −12 | 0 | −19 | 3 | -6 | 32 | -8 |
| CC1(C)C(=O)N(c2ccc(C#N)c(C(F)(F)F)c2)C(=O)N1c1ccc(C(N)=O)c(F)c1 [(MIII), 4-(3-(4-cyano-3-(trifluoromethyl)phenyl)-5,5-dimethyl-2,4-dioxoimidazolidin-1-yl)-2-fluorobenzamide] | -4 | -11 | −10 | −1 | −1 | 4 | -2 | 13 | -2 |
| CC1(C)C(=O)N(c2ccc(C#N)c(C(F)(F)F)c2)C(=S)N1c1ccc(C(N)=O)c(F)c1 [(MII), 4-(3-(4-Cyano-3-(trifluoromethyl)phenyl)-5,5-dimethyl-4-oxo-2-thioxoimidazolidin-1-yl)-2-fluorobenzamide] | -8 | -3 | 0 | 0 | −2 | 0 | -4 | 23 | 2 |
